Source: patent US10874743B2, “IRAK degraders and uses thereof” (Kymera Therapeutics, Inc., priority 2017, dated 2020)

Target: T1, IRAK4 (Homo sapiens, UniProt Q9NWZ3)
T1 sequence (Q9NWZ3 1-460): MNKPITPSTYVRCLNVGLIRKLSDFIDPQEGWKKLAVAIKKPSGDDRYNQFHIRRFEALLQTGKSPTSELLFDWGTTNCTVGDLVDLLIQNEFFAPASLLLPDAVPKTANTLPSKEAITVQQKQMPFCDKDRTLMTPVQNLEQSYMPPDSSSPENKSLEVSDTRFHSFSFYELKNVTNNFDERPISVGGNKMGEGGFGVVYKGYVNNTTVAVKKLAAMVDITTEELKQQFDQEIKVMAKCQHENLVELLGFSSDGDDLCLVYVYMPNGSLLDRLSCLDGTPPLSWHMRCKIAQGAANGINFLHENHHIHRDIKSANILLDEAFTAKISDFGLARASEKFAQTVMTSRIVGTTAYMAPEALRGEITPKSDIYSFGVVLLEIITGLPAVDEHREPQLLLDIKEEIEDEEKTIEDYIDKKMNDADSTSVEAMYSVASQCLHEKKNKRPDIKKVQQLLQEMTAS
Assay: OCI-LY-10 MSD assay for IRAK4 DC50
Format: cell-based
Design: endogenous in cells; host or cells: OCI-LY10
Details: OCI-LY10 cells, 4 hr incubation, concentration required to degrade 50% of protein
Experimental: A MSD assay was run to determine the concentration of compound required to degrade 50% of protein (DC50).
Day 1 • Compounds were reconstituted to 10 mM in stock solutions. The stock solutions were diluted to 5 mM and 45 μL of each dilution was transferred to a 384 pp-plate. A 3 fold, 8-point serial dilution was performed by transferring 15 μL of compound into 30 μL DMSO using Janus. • 20 nL of each compounds were added into each well of a 96-well plate (Corning3799). • OCI-Ly10 cells were seeded into the 96-well plate at 3.0*10e^5 cells/100 μL/well. • The cell plate was shaken at 720 rpm for 5 min and incubated for 4 hr. • The 100 μL of cells were transferred into the 96-PCR plate and spun down at high speed for 5 mins. • The supernatant was discarded and 100 μL of RIPA lysis buffer with proteinase inhibitors was added per well. The plate was then sealed and shaken at 600 rpm and 4° C. for about 20 min. • The plate was then spun down at high speed (about 3200 g) for 30 min and then frozen in a −80° C. fridge. • A bare MSD plate (L15XA-3) was coated with 2 μg/mL of capture antibody (mouse Anti-IRAK4 antibody [2H9], ab119942) in PBS to 40 μL/well and incubated overnight at 4° C.
Day 2 • The MSD coated plate was washed 3× (150 μL/well) with 1×TBST (CST #9997S). • The MSD plate was then blocked with 150 μL of blocking buffer [3% Blocker A (MSD, R93BA-4) in TBST]/well and shaken for 1 hr at R^† and 600 rpm. • The MSD plate was washed 3× (150 μL/well) with 1×TBST. The sample RIPA lysates were then added to the MSD plate (50 μL/well) and shaken for 1 hr at R^† and 600 rpm. • The MSD plate was washed 3× (150 μL/well) with 1×TBST and the primary detection antibody (Rabbit Anti-IRAK4 antibody [Y279], ab32511) was added to a final concentration of 1 μg/ml with 25 μL/well. The plate was then shaken for 1 hr at RT and 600 rpm. • The MSD plate was washed 3× (150 μL/well) with 1×TBST and the secondary detection antibody, SULFO-TAG anti-species antibody (Anti Rabbit Antibody (R32AB-5) MSD, R32AB-1) was added to a volume of 25 μL/well at a final concentration of 1 jag/ml. The plate was then shaken for 1 hr at RT and 600 rpm. • The MSD plate was then washed 3× (150 μL/well) with 1×TBST. • lx MSD reading buffer was then added (150 μL/well) and the plate was diluted with 4× water. (MSD, R92TC-2) • The MSD instrument was then read.
Data Analysis • The remaining activity was calculated following the formula below:
Calculate • The DC50 was calculated by fitting the Curve using Xlfit (v5.3.1.3), equation 201: Y=Bottom+(Top−Bottom)/(1+10^((Log IC50−X)*HillSlope))
OCI-LY-10 DC50 results. The letter codes for IRAK4 DC50 indicate the concentration of compound required to degrade 50% of protein: A (<0.05 μM), B (0.05-0.1 μM), C (0.1-0.5 μM), D (0.5-1.0 μM), and E (>1.0 μM).

`CNC(=O)c1nn(-c2ccc(CNCCOCCOCCNc3cccc4c3C(=O)N(C3CCC(=O)NC3=O)C4=O)cc2)cc1NC(=O)c1coc(-c2ccnc(NCC(F)(F)F)c2)n1` (centres unmarked) [I-400] was tested, and the DC50 was < 50 nM.
In the case of `COCC(=O)N[C@H](C(=O)N1Cc2cc(OCCOCCOCCOCCOCCNC(=O)c3ccc(-n4cc(NC(=O)c5coc(-c6ccnc(NCC7CC7)c6)n5)c(C(F)F)n4)cc3)ccc2CC1C(=O)N[C@@H]1CCCc2ccccc21)C(C)(C)C` (some centres unmarked) [I-296], the DC50 is reported as > 1000 nM.
For `Cn1cc(NC(=O)c2coc(-c3ccnc(NCC(F)(F)F)c3)n2)c(CNCCOCCOCCOCCNc2cccc3c2C(=O)N(C2CCC(=O)NC2=O)C3=O)n1` (centres unmarked) [I-408], the DC50 was > 1000 nM.
For `CC1(C)CCN(c2nn(-c3ccc(C(=O)NCCOCCOCCNc4cccc5c4C(=O)N(C4CCC(=O)NC4=O)C5=O)cc3)cc2NC(=O)c2coc(-c3ccnc(NCC(F)(F)F)c3)n2)C1=O` (centres unmarked) [I-429, N-[3-(3,3-dimethyl-2-oxo-pyrrolidin-1-yl)-1-[4-[2-[2-[2-[[2-(2,6-dioxo-3-piperidyl)-1,3-dioxo-isoindolin-4-yl]amino]ethoxy]ethoxy]ethyl]carbamoyl]phenyl]pyrazol-4-yl-2-[2-(2,2,2-trifluoroethylamino)-4-pyridyl]oxazole-4-carboxamide], the DC50 was > 1000 nM.
`Cc1ncsc1-c1ccc(CNC(=O)[C@@H]2C[C@@H](O)CN2C(=O)[C@@H](NCCOCCOCCOCCNC(=O)C2CCC(n3cc(NC(=O)c4coc(-c5ccnc(NCC(F)(F)F)c5)n4)c(C(N)=O)n3)CC2)C(C)(C)C)cc1` (some centres unmarked) [I-293] was tested, and the DC50 was > 1000 nM.
With `Cn1cc(NC(=O)c2coc(-c3ccnc(NCC(F)(F)F)c3)n2)c(CNCCCOCC(C)(C)COCCCc2cccc3c2n(C)c(=O)n3C2CCC(=O)NC2=O)n1` (centres unmarked) [I-420] the DC50 was > 1000 nM.
`Cn1c(=O)n(C2CCC(=O)NC2=O)c2cccc(CCCOCCOCCOCCOCC(=O)N3CCN(C4CCC(Nc5ncnc6[nH]cc(C7CCOCC7)c56)CC4)CC3)c21` (centres unmarked) [I-444, 3-[3-Methyl-2-oxo-4-[3-[2-[2-[2-[2-oxo-2-[4-[4-[(5-tetrahydropyran-4-yl-7H-pyrrolo[2,3-d]pyrimidin-4-yl)amino]cyclohexyl]piperazin-1-yl]ethoxy]ethoxy]ethoxy]ethoxy]propyl]benzimidazol-1-yl]piperidine-2,6-dione] gave a DC50 of 50 to 100 nM.
With `O=C1CCC(N2C(=O)c3cccc(NCCOCCOCCOCC(=O)N4C[C@H](OC(=O)[C@@H]5CCCN5)C[C@H]4C(=O)NCc4ccc(-n5cc(NC(=O)c6coc(-c7ccnc(NCC8CC8)c7)n6)c(C(F)F)n5)cc4)c3C2=O)C(=O)N1` (some centres unmarked) [I-289] the DC50 was > 1000 nM.
`Cn1cc(NC(=O)c2cocn2)c(C(=O)NCCOCCOCCOCCNc2cccc3c2C(=O)N(C2CCC(=O)NC2=O)C3=O)n1` (centres unmarked) [I-300] was tested, and the DC50 was > 1000 nM.
`COCC(=O)N[C@H](C(=O)N1Cc2cc(OCCOCCOCCOCCNCc3ccc(-n4cc(NC(=O)c5coc(-c6ccnc(NCC7CC7)c6)n5)c(C(F)F)n4)cc3)ccc2CC1C(=O)N[C@@H]1CCCc2ccccc21)C(C)(C)C` (some centres unmarked) [I-417] was tested, and the DC50 was > 1000 nM.
Compound `O=C1CCC(N2C(=O)c3cccc(NCCOCCOCCNC(=O)c4ccc(-n5cc(NC(=O)c6coc(-c7ccnc(NCC(F)(F)F)c7)n6)c(C(F)F)n5)cc4)c3C2=O)C(=O)N1` (centres unmarked) [I-261] has a DC50 of 100 to 500 nM.
With `Cn1c(=O)n(C2CCC(=O)NC2=O)c2ccc(CCCOCCCN3CCN(C4CCC(Nc5ncnn6ccc(C7CCOCC7)c56)CC4)CC3)cc21` (centres unmarked) [I-436, 3-[3-Methyl-2-oxo-5-[3-[3-[4-[4-[(5-tetrahydropyran-4-ylpyrrolo[2,1-f][1,2,4]triazin-4-yl)amino]cyclohexyl]piperazin-1-yl]propoxy]propyl]benzimidazol-1-yl]piperidine-2,6-dione] the DC50 was > 1000 nM.
For `Cn1cc(NC(=O)c2coc(-c3ccnc(NCC(F)(F)F)c3)n2)c(CNCCCOCCCOCCCNc2cccc3c2C(=O)N(C2CCC(=O)NC2=O)C3=O)n1` (centres unmarked) [I-412], the DC50 was > 1000 nM.
With `NC(=O)c1nn(-c2ccc(CNCCOCCOCCN3CCN(c4cccc5c4C(=O)N(C4CCC(=O)NC4=O)C5=O)CC3)cc2)cc1NC(=O)c1coc(-c2ccnc(NCC3CC3)c2)n1` (centres unmarked) [I-396] the DC50 was 50 to 100 nM.
`Cc1ncsc1-c1ccc(CNC(=O)[C@@H]2C[C@@H](O)CN2C(=O)[C@@H](NCCOCCOCCOCCNC(=O)c2nn(C)cc2NC(=O)c2coc(-c3ccnc(NCC(F)(F)F)c3)n2)C(C)(C)C)cc1` [I-295] was tested, and the DC50 was > 1000 nM.
With `Cn1c(=O)n(C2CCC(=O)NC2=O)c2ccc(CCCOCCOCCOCCOCC(=O)N3CCN(C4CCC(Nc5ncnc6[nH]cc(C7CCOCC7)c56)CC4)CC3)cc21` (centres unmarked) [I-447, 3-[3-Methyl-2-oxo-5-[3-[2-[2-[2-[2-oxo-2-[4-[4-[(5-tetrahydropyran-4-yl-7H-pyrrolo[2,3-d]pyrimidin-4-yl)amino]cyclohexyl]piperazin-1-yl]ethoxy]ethoxy]ethoxy]ethoxy]propyl]benzimidazol-1-yl]piperidine-2,6-dione] the DC50 was 50 to 100 nM.
In the case of `O=C1CCC(N2C(=O)c3cccc(NC4CCN(CCOCCOCCNCc5ccc(-n6cc(NC(=O)c7coc(-c8ccnc(NCC9CC9)c8)n7)c(C(F)F)n6)cc5)CC4)c3C2=O)C(=O)N1` (centres unmarked) [I-334], the DC50 is reported as 50 to 100 nM.
`Cn1c(=O)n(C2CCC(=O)NC2=O)c2ccc(CCCCOCCCCNC(=O)c3ccc(-n4cc(NC(=O)c5cnn6ccc(N7CCNCC7)nc56)c(C(F)F)n4)cc3)cc21` (centres unmarked) [I-445, N-[3-(difluoromethyl)-1-[4-[4-[4-[1-(2,6-dioxo-3-piperidyl)-3-methyl-2-oxo-benzimidazol-5-yl]butoxylbutyl]carbamoyl]phenyl]pyrazol-4-yl]-5-piperazin-1-yl-pyrazolo[1,5-a]pyrimidine-3-carboxamide] gave a DC50 of 50 to 100 nM.
With `Cn1c(=O)n(C2CCC(=O)NC2=O)c2cccc(CCCOCCCOCCCNCc3ccc(-n4cc(NC(=O)c5coc(-c6ccnc(NCC7CC7)c6)n5)c(C(F)F)n4)cc3)c21` (centres unmarked) [I-406] the DC50 was < 50 nM.
With `Cn1c(=O)n(C2CCC(=O)NC2=O)c2cccc(CCCOCCOCCNCc3ccc(-n4cc(NC(=O)c5cocn5)c(C(N)=O)n4)cc3)c21` (centres unmarked) [I-422] the DC50 was > 1000 nM.
With `CN[C@@H](C)C(=O)N[C@H](C(=O)N1Cc2cc(OCCOCCOCCOCCNCc3ccc(-n4cc(NC(=O)c5coc(-c6ccnc(NCC7CC7)c6)n5)c(C(F)F)n4)cc3)ccc2C[C@H]1C(=O)N[C@@H]1CCCc2ccccc21)C(C)(C)C` [I-681, 2-[2-(Cyclopropylmethylamino)-4-pyridyl]-N-[3-(difluoromethyl)-1-[4-[[2-[2-[2-[2-[[(3S)-2-[(2S)-3,3-dimethyl-2-[[(2S)-2-(methylamino)propanoyl]amino]butanoyl]-3-[[(1R)-tetralin-1-yl]carbamoyl]-3,4-dihydro-1H-isoquinolin-7-yl]oxy]ethoxy]ethoxy]ethoxy]ethylamino]methyl]phenyl]pyrazol-4-yl]oxazole-4-carboxamide] the DC50 was 500 to 1000 nM.
In the case of `Cn1c(=O)n(C2CCC(=O)NC2=O)c2cccc(CCCOCCOCCOCCOCC(=O)N[C@H]3CC[C@H](Nc4ncnc5[nH]cc(C6CCOCC6)c45)CC3)c21` (some centres unmarked) [I-440, 2-[2-[2-[2-[3-[1-(2,6-Dioxo-3-piperidyl)-3-methyl-2-oxo-benzimidazol-4-yl]propoxy]ethoxy]ethoxy]ethoxy]-N-[4-[(5-tetrahydropyran-4-yl-7H-pyrrolo[2,3-d]pyrimidin-4-yl)amino]cyclohexyl]acetamide], the DC50 is reported as > 1000 nM.
In the case of `NC(=O)c1nn(-c2ccc(CNCCCOCCCOCCCNc3cccc4c3C(=O)N(C3CCC(=O)NC3=O)C4=O)cc2)cc1NC(=O)c1coc(-c2ccnc(NCC3CC3)c2)n1` (centres unmarked) [I-398], the DC50 is reported as 100 to 500 nM.
